# From US6362369B1, “Phthalic acid diamide derivatives fluorine-containing aniline compounds as starting material, agricultural and horticultural insecticides, and a method for application of the insecticides” (Nihon Nohyaku Co., Ltd., priority 1997, dated 2002)
# Assays:
# Format in all cases: in vivo
# [1] = system: diamondback moth (Plutella xylostella); assay: Insecticidal effect on diamondback moth (Test Example 1); settings: for Insecticidal effect (Test Example 1), judged from mortality / Insecticidal effect, Test Example 1: diamondback moth; for Insecticidal effect (Test Example 1), judged from mortality: judged by the criterion of Test Example 1; for Insecticidal effect on diamondback moth (Test Example 1), judged grade: mortality judged according to the criterion shown in Test Example 1
# Summary of the method: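 Triplicate groups of 10 insects: eggs laid on Chinese cabbage seedling by adults, seedling immersed then air-dried, kept at 25° C. Day-6 hatch counts gave mortality, rated by criterion.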
# [2] = system: rice leafroller (Cnaphalocrocis medinalis); assay: Insecticidal effect on rice leafroller (Test Example 3); settings: 500 ppm, 25° C., humidity 70%; for Insecticidal effect (Test Example 3), judged from mortality / Insecticidal effect on rice leafroller (Test Example 3), judged grade: rice lamina dip; for Insecticidal effect (Test Example 3), judged from mortality: 4 days after inoculation; for Insecticidal effect, Test Example 3: rice lamina immersed; for Insecticidal effect, Test Example 3 / Insecticidal effect on rice leafroller (Test Example 3), judged grade: four days after inoculation; for Insecticidal effect on rice leafroller (Test Example 3), judged grade: third-instar larvae
# Summary of the method: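 Insecticidal effect is judged by a predefined criterion from dead/alive counts four days after infesting air-dried lamina with third-instar larvae, kept on moistened filter paper at 25° C, 70% humidity.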
# [3] = system: common cutworm (Spodoptera Litura); assay: Insecticidal effect on common cutworm (Test Example 2); settings: 500 ppm, 25° C.; for Insecticidal effect (Test Example 2), judged from mortality / Insecticidal effect on common cutworm (Test Example 2), judged grade: cabbage leaf dip; for Insecticidal effect (Test Example 2), judged from mortality: 8 days after inoculation; for Insecticidal effect, Test Example 2: cabbage leaf immersed; for Insecticidal effect, Test Example 2 / Insecticidal effect on common cutworm (Test Example 2), judged grade: eight days after inoculation; for Insecticidal effect on common cutworm (Test Example 2), judged grade: second-instar larvae
# Summary of the method: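 Mortality was scored 8 days post-inoculation, using three groups of 10 second-instar larvae kept at 25 °C in closed 9 cm dishes on air-dried treated material. The insecticidal effect was graded from calculated mortality by a set criterion.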
# [4] = third-instar larvae of rice leafroller
# [5] = second-instar larvae of common cutworm
# [6] = mortality judged by criterion of Test Example 1
# [7] = rice leafroller third-instar larvae
# [8] = common cutworm second-instar larvae
# [9] = judged by the mortality criterion of Test Example 1
structure (smiles),measurement,setting,value
Cc1cc(C(F)(F)C(F)(F)F)c(Cl)cc1NC(=O)c1cccc(I)c1C(=O)NC(C)(C)C [compound 1654],"Insecticidal effect (Test Example 1), judged from mortality",[1],A (100)
same,"Insecticidal effect (Test Example 3), judged from mortality",[2]; [4],A (100)
same,"Insecticidal effect (Test Example 2), judged from mortality",[3]; [5],A (100)
CC(C)NC(=O)c1c(I)cccc1C(=O)Nc1ccc2c(c1Cl)OC(F)C(F)(F)O2 (racemic) [compound 1680],"Insecticidal effect (Test Example 1), judged from mortality",[1],A (100)
same,"Insecticidal effect (Test Example 3), judged from mortality",[2]; [4],A (100)
same,"Insecticidal effect (Test Example 2), judged from mortality",[3]; [5],A (100)
CCN(CC)C(=O)c1c(C(=O)Nc2ccc(OC(F)(F)F)cc2C)cccc1[N+](=O)[O-] [compound 1118],"Insecticidal effect, Test Example 1",[1]; [6],A (100)
same,"Insecticidal effect, Test Example 3",[2]; [7],A (100)
same,"Insecticidal effect, Test Example 2",[3]; [8],A (100)
Cc1cc(OC(F)(F)Br)ccc1NC(=O)c1cccc(I)c1C(=O)NC(C)(C)C [compound 1051],"Insecticidal effect, Test Example 1",[1]; [6],A (100)
same,"Insecticidal effect, Test Example 3",[2]; [7],A (100)
same,"Insecticidal effect, Test Example 2",[3]; [8],A (100)
C=CC(C)(C)NC(=O)c1c(Cl)cccc1C(=O)Nc1ccc(C(F)(F)C(F)(F)F)cc1C [compound 1569],"Insecticidal effect (Test Example 1), judged from mortality",[1],A (100)
same,"Insecticidal effect (Test Example 3), judged from mortality",[2]; [4],A (100)
same,"Insecticidal effect (Test Example 2), judged from mortality",[3]; [5],A (100)
CCC(C)NC(=O)c1c(Cl)cccc1C(=O)Nc1ccc(C(F)(F)C(F)(F)C(F)(F)F)cc1F (stereo not drawn) [compound 1500],"Insecticidal effect (Test Example 1), judged from mortality",[1],A (100)
same,"Insecticidal effect (Test Example 3), judged from mortality",[2]; [4],A (100)
same,"Insecticidal effect (Test Example 2), judged from mortality",[3]; [5],A (100)
CC(C)NC(=O)c1cccc(Br)c1C(=O)Nc1ccc(C(F)(F)F)cc1 [compound 301],"Insecticidal effect, Test Example 1",[1]; [9],A (100)
same,"Insecticidal effect, Test Example 3",[2]; [4],D (79-50)
same,"Insecticidal effect, Test Example 2",[3]; [5],A (100)
CC(C)NC(=O)c1c(C(=O)Nc2ccc(C(F)(F)C(F)(F)C(F)(F)F)cc2)cccc1[N+](=O)[O-] [compound 609],"Insecticidal effect on diamondback moth (Test Example 1), judged grade",[1],A (100)
same,"Insecticidal effect on rice leafroller (Test Example 3), judged grade",[2],A (100)
same,"Insecticidal effect on common cutworm (Test Example 2), judged grade",[3],B (99-90)
CC(C)(C)NC(=O)c1c(I)cccc1C(=O)Nc1ccc(OC(F)(F)F)cc1 [compound 940],"Insecticidal effect, Test Example 1",[1]; [6],A (100)
same,"Insecticidal effect, Test Example 3",[2]; [7],A (100)
same,"Insecticidal effect, Test Example 2",[3]; [8],A (100)
Cc1cc(Cl)ccc1NC(=O)c1cccc(Br)c1C(=O)NC(C)C [compound 267],"Insecticidal effect, Test Example 1",[1]; [9],A (100)
same,"Insecticidal effect, Test Example 3",[2]; [4],A (100)
same,"Insecticidal effect, Test Example 2",[3]; [5],A (100)
Cc1cc(Cl)ccc1NC(=O)c1cccc(Cl)c1C(=O)NC(C)(C)C [compound 937],"Insecticidal effect on diamondback moth (Test Example 1), judged grade",[1],A (100)
same,"Insecticidal effect on rice leafroller (Test Example 3), judged grade",[2],A (100)
same,"Insecticidal effect on common cutworm (Test Example 2), judged grade",[3],A (100)
CCN(CC)C(=O)c1c(C(=O)Nc2ccc(C(F)(C(F)(F)F)C(F)(F)F)cc2C)cccc1[N+](=O)[O-] [compound 1119],"Insecticidal effect, Test Example 1",[1]; [6],A (100)
same,"Insecticidal effect, Test Example 3",[2]; [7],A (100)
same,"Insecticidal effect, Test Example 2",[3]; [8],A (100)
Cc1cc(OC(F)(F)C(F)F)ccc1NC(=O)c1ccccc1C(=O)NC(C)C [compound 60],"Insecticidal effect, Test Example 1",[1]; [9],A (100)
same,"Insecticidal effect, Test Example 3",[2]; [4],A (100)
same,"Insecticidal effect, Test Example 2",[3]; [5],A (100)
CCN(CC)C(=O)c1c(I)cccc1C(=O)Nc1ccc(C(F)(F)C(F)(F)F)cc1C [compound 1035],"Insecticidal effect, Test Example 1",[1]; [6],A (100)
same,"Insecticidal effect, Test Example 3",[2]; [7],A (100)
same,"Insecticidal effect, Test Example 2",[3]; [8],A (100)
Cc1cc(Br)ccc1NC(=O)c1c(I)cccc1C(=O)NC(C)C [compound 430],"Insecticidal effect, Test Example 1",[1]; [9],A (100)
same,"Insecticidal effect, Test Example 3",[2]; [4],D (79-50)
same,"Insecticidal effect, Test Example 2",[3]; [5],D (79-50)
CC(C)NC(=O)c1c(F)cccc1C(=O)Nc1ccc(OC(F)(F)F)cc1Br [compound 509],"Insecticidal effect on diamondback moth (Test Example 1), judged grade",[1],A (100)
same,"Insecticidal effect on rice leafroller (Test Example 3), judged grade",[2],A (100)
same,"Insecticidal effect on common cutworm (Test Example 2), judged grade",[3],A (100)
Cc1cc(C(F)(F)C(F)(F)F)ccc1NC(=O)c1cccc(OC(F)(F)F)c1C(=O)NC(C)(C)C [compound 1192],"Insecticidal effect, Test Example 1",[1]; [6],A (100)
same,"Insecticidal effect, Test Example 3",[2]; [7],A (100)
same,"Insecticidal effect, Test Example 2",[3]; [8],A (100)
Cc1cc(OC(F)(F)C(F)Cl)ccc1NC(=O)c1c(Br)cccc1C(=O)NC(C)C (stereo not drawn) [compound 329],"Insecticidal effect, Test Example 1",[1]; [9],A (100)
same,"Insecticidal effect, Test Example 3",[2]; [4],A (100)
same,"Insecticidal effect, Test Example 2",[3]; [5],A (100)
Cc1cc(C(F)(F)F)ccc1NC(=O)c1cccc(Cl)c1C(=O)NC(C)C [compound 127],"Insecticidal effect, Test Example 1",[1]; [9],A (100)
same,"Insecticidal effect, Test Example 3",[2]; [4],A (100)
same,"Insecticidal effect, Test Example 2",[3]; [5],A (100)
CC(C)NC(=O)c1c(I)cccc1C(=O)Nc1ccc2nc(C(C)C)sc2c1 [compound 1764],"Insecticidal effect (Test Example 1), judged from mortality",[1],A (100)
same,"Insecticidal effect (Test Example 3), judged from mortality",[2]; [4],A (100)
same,"Insecticidal effect (Test Example 2), judged from mortality",[3]; [5],A (100)
Cc1cc(I)ccc1NC(=O)c1c(Br)cccc1C(=O)NC(C)C [compound 313],"Insecticidal effect, Test Example 1",[1]; [9],A (100)
same,"Insecticidal effect, Test Example 3",[2]; [4],A (100)
same,"Insecticidal effect, Test Example 2",[3]; [5],A (100)
Cc1cc(C(F)(F)C(F)(F)F)ccc1NC(=O)c1cccc(Cl)c1C(=O)N(C)Cc1ccccc1 [compound 1406],"Insecticidal effect, Test Example 1",[1]; [6],A (100)
same,"Insecticidal effect, Test Example 3",[2]; [7],A (100)
same,"Insecticidal effect, Test Example 2",[3]; [8],A (100)
CCCC(C)NC(=O)c1c(I)cccc1C(=O)Nc1ccc(C(F)(F)C(F)(F)F)cc1C (stereo not drawn) [compound 1009],"Insecticidal effect, Test Example 1",[1]; [6],A (100)
same,"Insecticidal effect, Test Example 3",[2]; [7],A (100)
same,"Insecticidal effect, Test Example 2",[3]; [8],A (100)
CC(C)NC(=O)c1c(I)cccc1C(=O)Nc1ccc(SC(F)(F)F)cc1 [compound 998],"Insecticidal effect, Test Example 1",[1]; [6],A (100)
same,"Insecticidal effect, Test Example 3",[2]; [7],A (100)
same,"Insecticidal effect, Test Example 2",[3]; [8],A (100)
Cc1cc(C(F)(F)C(F)(F)F)ccc1NC(=O)c1cccc(Cl)c1C(=O)NC(C)(C)C#Cc1cccnc1 [compound 1590],"Insecticidal effect (Test Example 1), judged from mortality",[1],A (100)
same,"Insecticidal effect (Test Example 3), judged from mortality",[2]; [4],A (100)
same,"Insecticidal effect (Test Example 2), judged from mortality",[3]; [5],A (100)
